From patent US12655116B2, “Substituted isophthalic acid diamides” (Bayer Aktiengesellschaft, priority 2020, dated 2026)

Assays:
ABUTH [1] = assay: Pre-emergence herbicidal action against ABUTH; type: in vivo, Abutilon theophrasti; conditions: Abutilon theophrasti, 504 h
Procedure, shortened: (§1)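 Sandy loam pots, seeds covered with soil, then surface-treated with WP or EC formulations at 600–800 l/ha water plus 0.2% wetting agent. Greenhouse, 3 weeks. Percent damage vs untreated controls.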

ALOMY [2] = assay: Pre-emergence herbicidal action against ALOMY; type: in vivo, Alopecurus myosuroides; conditions: Alopecurus myosuroides, 504 h, pre-emergence
Procedure, shortened: as §1

AMARE [3] = assay: Pre-emergence herbicidal action against AMARE; type: in vivo, Amaranthus retroflexus; conditions: Amaranthus retroflexus, 504 h, scored visually after 3 weeks vs untreated controls, 100% = plants have died, 0% = like control plants
Procedure, shortened: as §1

AVEFA [4] = assay: Pre-emergence herbicidal action against AVEFA; type: in vivo, Avena fatua; conditions: Avena fatua, 504 h; 80 g/ha, pre-emergence
Procedure, shortened: as §1

ECHCG [5] = assay: Pre-emergence herbicidal action against ECHCG; type: in vivo, Echinochloa crus-galli; conditions: Echinochloa crus-galli, 504 h, 80 g/ha
Procedure, shortened: as §1

LOLRI [6] = assay: Pre-emergence herbicidal action against LOLRI; type: in vivo, Lolium rigidum; conditions: Lolium rigidum, 504 h, 80 g/ha
Procedure, shortened: as §1

MATIN [7] = assay: Pre-emergence herbicidal action against MATIN; type: in vivo, Matricaria inodora; conditions: Tripleurospermum inodorum, 504 h
Procedure, shortened: as §1

SETVI [8] = assay: Pre-emergence herbicidal action against SETVI; type: in vivo, Setaria viridis; conditions: Setaria viridis, 504 h
Procedure, shortened: as §1

VIOTR [9] = assay: Pre-emergence herbicidal action against VIOTR; type: in vivo, Viola tricolor; conditions: Viola tricolor, 504 h
Procedure, shortened: as §1

DIGSA [10] = assay: Pre-emergence herbicidal action against DIGSA; type: in vivo, Digitaria sanguinalis; conditions: Digitaria sanguinalis, 504 h
Procedure, shortened: as §1

ABUTH [11] = assay: Post-emergence herbicidal action against ABUTH; type: in vivo, Abutilon theophrasti; conditions: Abutilon theophrasti, 504 h, dosage 20 g/ha, visual assessment about 3 weeks after treatment vs untreated controls
Procedure, shortened: (§2)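 Visual % rating (0% = as untreated, 100% = dead) ~3 wk after spraying one-leaf-stage plants grown in sandy loam; WP/EC in water at 600–800 l/ha, 0.2% wetting agent.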

ALOMY [12] = assay: Post-emergence herbicidal action against ALOMY; type: in vivo, Alopecurus myosuroides; conditions: Alopecurus myosuroides, 504 h, visual assessment about 3 weeks after treatment vs untreated controls
Procedure, shortened: as §2

AMARE [13] = assay: Post-emergence herbicidal action against AMARE; type: in vivo, Amaranthus retroflexus; conditions: Amaranthus retroflexus, 504 h, 20 g/ha, visual assessment about 3 weeks after treatment, 100% = plants have died, 0% = like control plants
Procedure, shortened: as §2

AVEFA [14] = assay: Post-emergence herbicidal action against AVEFA; type: in vivo, Avena fatua; conditions: Avena fatua, 504 h, 20 g/ha, visual assessment about 3 weeks after treatment, 100% = plants have died, 0% = like control plants
Procedure, shortened: as §2

ECHCG [15] = assay: Post-emergence herbicidal action against ECHCG; type: in vivo, Echinochloa crus-galli; conditions: Echinochloa crus-galli, 504 h, dosage 20 g/ha
Procedure, shortened: as §2

LOLRI [16] = assay: Post-emergence herbicidal action against LOLRI; type: in vivo, Lolium rigidum; conditions: Lolium rigidum, 504 h, dosage 20 g/ha
Procedure, shortened: as §2

MATIN [17] = assay: Post-emergence herbicidal action against MATIN; type: in vivo, Matricaria inodora; conditions: Tripleurospermum inodorum, 504 h, dosage 20 g/ha
Procedure, shortened: as §2

POLCO = assay: Post-emergence herbicidal action against POLCO; type: in vivo, Polygonum convolvulus; conditions: Fallopia convolvulus, 504 h, dosage 20 g/ha
Procedure, shortened: as §2

SETVI [18] = assay: Post-emergence herbicidal action against SETVI; type: in vivo, Setaria viridis; conditions: Setaria viridis, 504 h
Procedure, shortened: as §2

VERPE = assay: Post-emergence herbicidal action against VERPE; type: in vivo, Veronica persica; conditions: Veronica persica, 504 h, 20 g/ha
Procedure, shortened: as §2

VIOTR [19] = assay: Post-emergence herbicidal action against VIOTR; type: in vivo, Viola tricolor; conditions: Viola tricolor, 504 h
Procedure, shortened: as §2

DIGSA [20] = assay: Post-emergence herbicidal action against DIGSA; type: in vivo, Digitaria sanguinalis; conditions: Digitaria sanguinalis, 504 h
Procedure, shortened: as §2

[21] = 80 g/ha, scored visually after 3 weeks vs untreated controls (100% = plants have died, 0% = like control plants)

Molecule `Cn1nnnc1NC(=O)c1ccc(Br)c(C(=O)NC2CC2)c1Cl` [Example 1-179] has a pest or weed control at 80 g/ha (ABUTH [1]; [21]) of 100%, a pest or weed control at 20 g/ha (ABUTH [1]; dosage 20 g/ha, scored visually after 3 weeks vs untreated controls, 100% = plants have died, 0% = like control plants, read-out: Pre-emergence action against ABUTH (herbicidal activity in percent)) of 80% and a pest or weed control at 80 g/ha (ALOMY [2]; [21]) of 100%. The pest or weed control at 20 g/ha (ALOMY [2]; 20 g/ha, scored visually after 3 weeks, 100% = plants have died, 0% = like control plants) was 80%, the pest or weed control at 20 g/ha (AMARE [3]; 20 g/ha) was 100% and the pest or weed control at 80 g/ha (AMARE [3]; 80 g/ha) was 100%. The pest or weed control at 80 g/ha (AVEFA [4]) was 100%, the pest or weed control at 80 g/ha (ECHCG [5]) was 100% and the pest or weed control at 80 g/ha (LOLRI [6]) was 90%. The pest or weed control at 20 g/ha (MATIN [7]; dosage 20 g/ha) was 90%, the pest or weed control at 80 g/ha (MATIN [7]; dosage 80 g/ha) was 100% and the pest or weed control at 20 g/ha (SETVI [8]; dosage 20 g/ha) was 80%. The pest or weed control at 80 g/ha (SETVI [8]; dosage 80 g/ha) was 100%, the pest or weed control at 20 g/ha (VIOTR [9]; dosage 20 g/ha) was 100% and the pest or weed control at 80 g/ha (VIOTR [9]; dosage 80 g/ha) was 100%. The pest or weed control at 20 g/ha (DIGSA [10]; dosage 20 g/ha) was 100%, the pest or weed control at 80 g/ha (DIGSA [10]; dosage 80 g/ha) was 100% and the pest or weed control at 20 g/ha (ABUTH [11]) was 80%. For the same molecule, the pest or weed control at 5 g/ha (ALOMY [12]; dosage 5 g/ha) was 90%, the pest or weed control at 20 g/ha (ALOMY [12]; dosage 20 g/ha) was 90% and the pest or weed control at 20 g/ha (AMARE [13]) was 100%. For the same molecule, the pest or weed control at 20 g/ha (AVEFA [14]) was 90%, the pest or weed control at 20 g/ha (ECHCG [15]) was 90% and the pest or weed control at 20 g/ha (LOLRI [16]) was 80%. The pest or weed control at 20 g/ha (MATIN [17]) was 80%, the pest or weed control at 20 g/ha (POLCO) was 80% and the pest or weed control at 5 g/ha (SETVI [18]; dosage 5 g/ha) was 90%. It also gave a pest or weed control at 20 g/ha (SETVI [18]; dosage 20 g/ha) of 90%, a pest or weed control at 20 g/ha (VERPE) of 80% and a pest or weed control at 5 g/ha (VIOTR [19]; 5 g/ha) of 80%. It also gave a pest or weed control at 20 g/ha (VIOTR [19]; 20 g/ha) of 90%, a pest or weed control at 5 g/ha (DIGSA [20]; 5 g/ha) of 90% and a pest or weed control at 20 g/ha (DIGSA [20]; 20 g/ha) of 90%.
